Experimental data from US20200390100A1, “SUBSTITUTED N-HETEROCYCLYL- AND N-HETEROARYL-TETRAHYDROPYRIMIDINONES AND THE SALTS THEREOF, AND THE USE OF SAME AS HERBICIDAL ACTIVE SUBSTANCES” (Bayer Aktiengesellschaft, priority 2017, published 2020).

Experiments:
Type in all cases: in vivo
[1] = system: Echinochloa crus-galli; test: Herbicidal pre-emergence action (Part 2), 1280 g/ha; details: application rate 1280 g/ha, scored visually after about 3 weeks, Table D1
In short: (§1)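 In this greenhouse test, covered seeds received an aqueous WP or EC spray on the soil surface. Damage, 0–100% relative to controls, was judged by eye after about 3 weeks.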

[2] = system: Stellaria media; test: as above; details: application rate 1280 g/ha, scored visually after about 3 weeks, Table D8
In short: as §1

[3] = system: Matricaria inodora; test: as above; details: application rate 1280 g/ha, scored visually after about 3 weeks, Table D7
In short: as §1

[4] = system: Setaria viridis; test: as above; details: application rate 1280 g/ha, scored visually after about 3 weeks, Table D4
In short: as §1

[5] = system: Abutilon theophrasti; test: as above; details: application rate 1280 g/ha, scored visually after about 3 weeks, Table D5
In short: as §1

[6] = system: Poa annua; test: as above; details: application rate 1280 g/ha, scored visually after about 3 weeks, Table D3
In short: as §1

[7] = system: Amaranthus retroflexus; test: as above; details: application rate 1280 g/ha, scored visually after about 3 weeks, Table D6
In short: as §1

[8] = system: Matricaria inodora; test: Herbicidal post-emergence action (Part 2), 1280 g/ha; details: application rate 1280 g/ha, rated visually after about 3 weeks, Table C6
In short: (§2)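 Scoring: visual, % activity against untreated controls after ~3 weeks, with death counted as 100%. Application was a post-emergence foliar spray to one-leaf-stage weeds in greenhouse pots.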

[9] = system: Abutilon theophrasti; test: as above; details: application rate 1280 g/ha, rated visually after about 3 weeks, Table C4
In short: as §2

[10] = system: Poa annua; test: as above; details: application rate 1280 g/ha, rated visually after about 3 weeks, Table C2
In short: as §2

[11] = system: Amaranthus retroflexus; test: as above; details: application rate 1280 g/ha, rated visually after about 3 weeks, Table C5
In short: as §2

[12] = system: Lolium rigidum; test: Herbicidal pre-emergence action (Part 2), 1280 g/ha; details: application rate 1280 g/ha, scored visually after about 3 weeks, Table D2
In short: as §1

[13] = system: Echinochloa crus-galli; test: Herbicidal post-emergence action (Part 2), 1280 g/ha; details: post-emergence (Part 2), application rate 1280 g/ha, rated visually after about 3 weeks vs untreated controls
In short: as §2

[14] = system: Stellaria media; test: as above; details: application rate 1280 g/ha, rated visually after about 3 weeks, Table C7
In short: as §2

[15] = system: Stellaria media; test: Post-emergence herbicidal action, greenhouse, 320 g/ha; details: application rate 320 g/ha, rated visually after about 3 weeks vs untreated controls
Method: (§3) Seeds of monocotyledonous and dicotyledonous weeds and crop plants were placed in sandy loam in plastic or wood-fiber pots, covered with soil and cultivated in a greenhouse under controlled growth conditions. 2 to 3 weeks after sowing, the test plants were treated at the one-leaf stage. The compounds of the invention, formulated in the form of wettable powders (WP) or as emulsion concentrates (EC), were then sprayed onto the green parts of the plants as aqueous suspension or emulsion with addition of 0.5% additive at a water application rate of […] (converted). After the test plants had been kept in the greenhouse under optimum growth conditions for about 3 weeks, the activity of the preparations was rated visually in comparison to untreated controls. For example, 100% activity=the plants have died, 0% activity=like control plants. Tables A1 to A14 below show the effects of selected compounds of the general formula (I) according to Tables 1.1 to 1.150 on various harmful plants and at an application rate corresponding to 320 g/ha, which were obtained by the experimental procedure mentioned above.

[16] = system: Matricaria inodora; test: as above; details: application rate 320 g/ha, rated visually after about 3 weeks vs untreated controls
Method: as §3

[17] = system: Setaria viridis; test: as above; details: application rate 320 g/ha, rated visually after about 3 weeks vs untreated controls
Method: as §3

[18] = system: Digitaria sanguinalis; test: as above; details: application rate 320 g/ha, rated visually after about 3 weeks vs untreated controls
Method: as §3

[19] = system: Abutilon theophrasti; test: as above; details: application rate 320 g/ha, rated visually after about 3 weeks vs untreated controls
Method: as §3

[20] = system: Amaranthus retroflexus; test: as above; details: application rate 320 g/ha, rated visually after about 3 weeks vs untreated controls
Method: as §3

[21] = system: Avena fatua; test: Pre-emergence herbicidal action, greenhouse, 320 g/ha; details: application rate 320 g/ha, scored visually after about 3 weeks vs untreated controls
In short: (§4)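 Visual % damage versus untreated pots was read about 3 weeks after treatment, where 0% means growth as in controls and 100% means dead plants. Compounds were applied as WP or EC in water plus 0.5% additive onto the covering soil over freshly sown seeds.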

[22] = system: Stellaria media; test: as above; details: application rate 320 g/ha, scored visually after about 3 weeks vs untreated controls
In short: as §4

[23] = system: Viola tricolor; test: as above; details: application rate 320 g/ha, Table B8
In short: as §4

[24] = system: Abutilon theophrasti; test: as above; details: application rate 320 g/ha, scored visually after about 3 weeks vs untreated controls
In short: as §4

[25] = system: Polygonum convolvulus; test: as above; details: application rate 320 g/ha, scored visually after about 3 weeks vs untreated controls
In short: as §4

[26] = system: Amaranthus retroflexus; test: as above; details: application rate 320 g/ha, scored visually after about 3 weeks vs untreated controls
In short: as §4

SMILES | Echinochloa crus-galli [1] | Stellaria media [2] | Matricaria inodora [3] | Setaria viridis [4] | Abutilon theophrasti [5] | Poa Annua [6] | Amaranthus retroflexus [7] | Matricaria inodora [8] | Abutilon theophrasti [9] | Poa Annua [10] | Amaranthus retroflexus [11] | Echinochloa crus-galli [13] | other results
CC(=O)OC1N(c2cc(C(C)(C)C)on2)C(=O)N(C)CC1(C)C (stereo not drawn) [I.62-162] | 90% | 100% | 100% | 100% | 100% | 100% | 100% | 100% | 100% | 100% | 100% | – | –
CCCC(=O)OC1CC2CCCN2C(=O)N1c1cc(C(C)(C)C)on1 (stereo not drawn) [I.126-162] | 100% | 100% | 100% | 100% | 100% | 100% | 100% | 100% | 100% | 100% | 100% | 90% | Lolium rigidum [12]: 100%; Stellaria media [14]: 100%
CN1CC(F)(F)C(O)N(c2cc(C(C)(C)C)on2)C1=O (stereo not drawn) [I.141-162] | – | – | – | – | – | – | – | – | – | – | – | – | Stellaria media (efficacy in %) [15]: 100%; Matricaria inodora (efficacy in %) [16]: 80%; Setaria viridis (efficacy in %) [17]: 100%; Digitaria sanguinalis (efficacy in %) [18]: 100%; Abutilon theophrasti (efficacy in %) [19]: 100%; Amaranthus retroflexus (efficacy in %) [20]: 90%; Avena fatua (efficacy in %) [21]: 80%; Stellaria media (efficacy in %) [22]: 100%; Viola tricolor (efficacy in %) [23]: 90%; Abutilon theophrasti (efficacy in %) [24]: 90%; Polygonum convolvulus (efficacy in %) [25]: 90%; Amaranthus retroflexus (efficacy in %) [26]: 100%
CC(C)CC(=O)OC1CCN(C)C(=O)N1c1cc(C(C)(C)C)no1 (stereo not drawn) [I.7-290] | – | 100% | 100% | – | 100% | 90% | 100% | – | 100% | – | 100% | 100% | –
